This passage reports IC50 and Km results from paper PMC11278660, “Molecular, Genetic, and Biochemical Characterization of OXA-484 Carbapenemase, a Difficult-to-Detect R214G Variant of OXA-181” (Microorganisms, 2024).

For the first assay, the system named is T1, OXA-484.
T1 construct: gene blaOXA-484; mature beta-lactamase AA20-265 in pET41b(+), expressed in E. coli BL21(DE3), purified; gene 798 bp; natural variant equal to OXA-181 with R214G
The assay can be described thus: inhibition of beta-lactam hydrolysis. The class given is biochemical, Escherichia coli. Conditions: reporter substrate not stated.
Regarding `C[C@]1(Cn2ccnn2)[C@H](C(=O)O)N2C(=O)C[C@H]2S1(=O)=O` [tazobactam], the IC50 (commonly the concentration that inhibits the measured activity by half) was determined as 1.09 µM. The same measure, in the same setting: the same measure for `O=C(O)[C@H]1/C(=C/CO)O[C@@H]2CC(=O)N21` [clavulanic acid]: 19 µM.

A further assay relates to T1, OXA-484. The assay can be described thus: UV spectrophotometry, initial rates, Eadie-Hofstee plot. The assay is classed as biochemical, Escherichia coli. The note with it: 30 °C, 100 mM sodium phosphate, pH 7.0; read-out: Km (μM) / OXA-181. The text has this: UV spectrophotometry, initial rates, Eadie-Hofstee plot on OXA-484
Take `CO/N=C(\C(=O)N[C@@H]1C(=O)N2C(C(=O)O)=C(COC(C)=O)CS[C@H]12)c1csc(N)n1` [Cefotaxime]: the Km was above 1000 µM.

The assay is the same for the next values; noted with them: 30 °C, 100 mM sodium phosphate, pH 7.0; read-out: Km (μM) / OXA-484.
Take `CC1(C)S[C@@H]2[C@H](NC(=O)[C@H](N)c3ccccc3)C(=O)N2[C@H]1C(=O)O` [Ampicillin]: the Km amounted to 653 ± 72.2 µM. Still for that read-out and setting: the figure for `C[C@@H](O)[C@H]1C(=O)N2C(C(=O)O)=C(S[C@@H]3CN[C@H](C(=O)N(C)C)C3)[C@H](C)[C@H]12` [Meropenem] is 263 ± 9.4 µM.

As to `C[C@@H](O)[C@H]1C(=O)N2C(C(=O)O)=C(S[C@@H]3CN[C@H](C(=O)Nc4cccc(C(=O)O)c4)C3)[C@H](C)[C@H]12` [Ertapenem], the Km was determined as 27 ± 1.2 µM.

In the case of `C[C@@H](O)[C@H]1C(=O)N2C(C(=O)O)=C(SCCN=CN)C[C@H]12` [Imipenem], the Km is 6 ± 2.1 µM. On the same count and under the same terms, the figure for `CO[C@@]1(NC(=O)C(C(=O)O)c2ccsc2)C(=O)N2[C@@H](C(=O)O)C(C)(C)S[C@@H]21` (stereo partly shown) [Temocillin] is 178 ± 25.1 µM.

Take `CC1(C)S[C@@H]2[C@H](NC(=O)Cc3ccccc3)C(=O)N2[C@H]1C(=O)O` [Benzylpenicillin]: the Km is 33 ± 1.9 µM. On to `CC(=O)OCC1=C(C(=O)O)N2C(=O)[C@@H](NC(=O)Cc3cccs3)[C@H]2SC1` [Cefalotin], for which the Km was determined as 37 ± 2.6 µM.
